Measurements: patent US20230092359A1, “GEMFIBROZIL FORMULATION” (Polaryx Therapeutics, Inc., priority 2020, published 2023)
Read-outs that look alike come from different tables or passages of the source.

Experiments:
[1] = equivalent to 100 mg free form in 250 ml pH 7.3 artificial saliva, 37° C., 50 RPM
Method: Dissolution experiments using the salt forms of gemfibrozil were performed using a VanKel VK7010 dissolution apparatus equipped with a VK750D heater/circulator. The 2 paddle method was used. Dissolution medium was 250 mL of artificial saliva, pH 7.30. The temperature was maintained at 37° C. The paddles were rotated at 50 RPM. […] Samples aliquots of 2 mL were taken at 5, 10, and 15 minutes and filtered immediately using a […] Nylon membrane syringe filter. Samples were analyzed by HPLC.

[2] = Dynamic vapor sorption (DVS); format: physicochemical; parameters: key to Hysteresis: % change in weight (DVS sorption/desorption); conditions: for Hysteresis: in % (unit assumed); for state of post-DVS sample: after sorption/desorption cycle 5%-95%-5% relative humidity; for Desorp Mass Change: desorption; for gained moisture retained: following desorption from 95% to 5% relative humidity; for Sorp Mass Change: sorption
Text: In an embodiment, ethanolamine gemfibrozil salt Form A has a low hygroscopicity below approximately 55% relative humidity, meaning less than 0.5% increases in weight below approximately 55% relative humidity, which may be determined using dynamic vapor sorption (DVS) to detect changes in weight of the salt in response to changes in relative humidity. […] Table 6 lists the percent change in weight of ethanolamine gemfibrozil salt Form A (Sorp Mass Change (%)) in 10% relative humidity increments from its initial weight at 5% relative humidity to its weight at 95% relative humidity.
Dynamic Vapor Sorption (DVS)—Moisture sorption/desorption data were collected on a SMS Intrinsic Dynamic Vapor Sorption Analyzer. Sodium chloride and PVP were used as calibration standard. Samples were not dried prior to analysis. Sorption and desorption data were collected over a range from 5% to 95% relative humidity at 10% relative humidity increments under a nitrogen purge. The equilibrium criterion used for analysis was less than 0.0100% weight change in 5 minutes with a maximum equilibration time of 3 hours. Data were not corrected for the initial moisture content of the samples.

[3] = Thermogravimetric analysis (TGA); format: physicochemical
Method: Thermogravimetric Analysis (TGA)—TG analysis was performed using a Mettler-Toledo TGA/DSC3+ analyzer. Temperature and enthalpy adjustments were performed using indium, tin, and zinc, and then verified with indium. The balance was verified with calcium oxalate. The sample was placed in an open aluminum pan. The pan was hermetically sealed, the lid pierced, then inserted into the TG furnace. A weighed aluminum pan configured as the sample pan was placed on the reference platform. The furnace was heated under nitrogen. The data acquisition parameters for the thermogram are determined.

[4] = XRPD form check after humidity stress; format: physicochemical
Text: In an example, an L-arginine gemfibrozil salt was stressed for one day at 75% relative humidity.
The observed peaks of the post-DVS salt were consistent with the pattern of peaks observed for an L-lysine gemfibrozil salt Material A prepared prior to exposure to increased relative humidities (FIG. 15).
X-Ray Powder Diffraction (XRPD)—XRPD patterns were collected with a PANalytical X'Pert PRO MPD or PANalytical Empyrean diffractometers using an incident beam of Cu radiation produced using an Optix long, fine-focus source. An elliptically graded multilayer mirror was used to focus Cu Kα X-rays through the specimen and onto the detector. Prior to analysis, a silicon specimen (NIST SRM 640e) was analyzed to verify the observed position of the Si 111 peak is consistent with the NIST-certified position. A specimen of the sample was sandwiched between 3 μm thick films and analyzed in transmission geometry. A beam-stop, short antiscatter extension, and antiscatter knife edge were used to minimize the background generated by air. Soller slits for the incident and diffracted beams were used to minimize broadening from axial divergence. Diffraction patterns were collected using a scanning position-sensitive detector (X'Celerator) located […] from the specimen and Data Collector software v. 5.5.

[5] = sorption from 5% to 85% relative humidity
[6] = sorption from 85% to 95% relative humidity
[7] = equilibrium, 1.5 ml pH 7.3 artificial saliva, 16 hours

Structure (SMILES) | Average % Gemfibrozil dissolved ([1]; 5 min) [%] | Average % Gemfibrozil dissolved ([1]; 10 min) [%] | Average % Gemfibrozil dissolved ([1]; 15 min) [%] | Hysteresis ([2]; Target RH 15.0%) | Hysteresis ([2]; Target RH 25.0%) | Hysteresis ([2]; Target RH 35.0%) | Hysteresis ([2]; Target RH 45.0%) | Hysteresis ([2]; Target RH 55.0%) | Hysteresis ([2]; Target RH 65.0%) | Hysteresis ([2]; Target RH 75.0%) | Hysteresis ([2]; Target RH 85.0%) | state of post-DVS sample [2] | Desorp Mass Change ([2]; Target RH 5.0%) [%] | Desorp Mass Change ([2]; Target RH 15.0%) [%] | Desorp Mass Change ([2]; Target RH 25.0%) [%] | Desorp Mass Change ([2]; Target RH 35.0%) [%] | Desorp Mass Change ([2]; Target RH 45.0%) [%] | Desorp Mass Change ([2]; Target RH 55.0%) [%] | Desorp Mass Change ([2]; Target RH 65.0%) [%] | Desorp Mass Change ([2]; Target RH 75.0%) [%] | further results
Cc1ccc(C)c(OCCCC(C)(C)C(=O)O)c1.N=C(N)NCCCC(N)C(=O)O [Arginine Material A] | 96.64 | 94.40 | 94.27 | 6.09 | 6.79 | 7.73 | 9.27 | 11.46 | 14.60 | 18.97 | 25.96 | deliquesced | 5.55 | 6.12 | 6.85 | 7.89 | 9.51 | 11.75 | 14.95 | 19.47 | Average % Gemfibrozil dissolved ([1]; 5 min, listed as L-arginine gemfibrozil salt Material A): 96.6%; Desorp Mass Change ([2]; Target RH 85.0%): 26.79%; Desorp Mass Change ([2]; Target RH 95.0%): 45.96%; gained moisture retained [2]: approximately 5.6%; percent increase in mass [2, 5]: approximately 0.8%; percent change in mass [2, 6]: 45.1%; Sorp Mass Change ([2]; Target RH 5.0%): 0.00%; Sorp Mass Change ([2]; Target RH 15.0%): 0.03%; Sorp Mass Change ([2]; Target RH 25.0%): 0.06%; Sorp Mass Change ([2]; Target RH 35.0%): 0.16%; Sorp Mass Change ([2]; Target RH 45.0%): 0.25%; Sorp Mass Change ([2]; Target RH 55.0%): 0.28%; Sorp Mass Change ([2]; Target RH 65.0%): 0.35%; Sorp Mass Change ([2]; Target RH 75.0%): 0.50%; Sorp Mass Change ([2]; Target RH 85.0%): 0.83%; Sorp Mass Change ([2]; Target RH 95.0%): 45.96%; temperature until which weight does not decrease (may be the onset of decomposition) [3]: approximately 207 °C; weight loss ([3]; between 44° C. and 125° C.): approximately 0.1%; form change by XRPD ([4]; stressed for one day at 75% relative humidity): did not undergo a form change; Observations [7]: No excess solids
Cc1ccc(C)c(OCCCC(C)(C)C(=O)O)c1.NCCO [Ethanolamine Form A] | 97.30 | 94.80 | 95.84 | 2.60 | 3.56 | 4.87 | 6.67 | 9.19 | 1.78 | 0.64 | 4.16 | deliquesced | 1.92 | 2.60 | 3.56 | 4.88 | 6.70 | 9.29 | 12.93 | 18.56 | Average % Gemfibrozil dissolved ([1]; 5 min, listed as ethanolamine gemfibrozil salt Form A): 97.3%; Desorp Mass Change ([2]; Target RH 85.0%): 31.49%; Desorp Mass Change ([2]; Target RH 95.0%): 45.05%; gained moisture retained [2]: approximately 2%; percent increase in mass ([2]; sorption from 5% to 55% relative humidity): approximately 0.1%; percent change in mass ([2]; sorption from 55% to 95% relative humidity): 44.9%; Sorp Mass Change ([2]; Target RH 5.0%): 0.00%; Sorp Mass Change ([2]; Target RH 15.0%): 0.00%; Sorp Mass Change ([2]; Target RH 25.0%): 0.00%; Sorp Mass Change ([2]; Target RH 35.0%): 0.01%; Sorp Mass Change ([2]; Target RH 45.0%): 0.03%; Sorp Mass Change ([2]; Target RH 55.0%): 0.10%; Sorp Mass Change ([2]; Target RH 65.0%): 11.14%; Sorp Mass Change ([2]; Target RH 75.0%): 17.93%; Sorp Mass Change ([2]; Target RH 85.0%): 27.33%; Sorp Mass Change ([2]; Target RH 95.0%): 45.05%; temperature until which weight does not decrease (may be the onset of decomposition) [3]: approximately 140 °C; Observations (pH 7.3): No excess solids
Cc1ccc(C)c(OCCCC(C)(C)C(=O)O)c1.NCCCCC(N)C(=O)O [Lysine Material A] | 96.29 | 93.51 | 94.67 | 2.48 | 3.61 | 2.69 | 2.54 | 2.30 | 2.09 | 3.16 | 13.47 | deliquesced | 2.09 | 2.53 | 2.81 | 3.09 | 3.45 | 4.09 | 5.25 | 9.49 | Average % Gemfibrozil dissolved ([1]; 5 min, listed as L-lysine gemfibrozil salt Material A): 96.3%; Desorp Mass Change ([2]; Target RH 85.0%): 27.95%; Desorp Mass Change ([2]; Target RH 95.0%): 38.97%; gained moisture retained [2]: approximately 2.1%; percent increase in mass ([2]; sorption from 5% to 25% relative humidity): approximately 0.2%; percent increase in mass [2, 5]: approximately 14.5%; percent change in mass [2, 6]: approximately 24.5%; Sorp Mass Change ([2]; Target RH 5.0%): 0.00%; Sorp Mass Change ([2]; Target RH 15.0%): 0.04%; Sorp Mass Change ([2]; Target RH 25.0%): 0.19%; Sorp Mass Change ([2]; Target RH 35.0%): 0.40%; Sorp Mass Change ([2]; Target RH 45.0%): 0.91%; Sorp Mass Change ([2]; Target RH 55.0%): 1.79%; Sorp Mass Change ([2]; Target RH 65.0%): 3.15%; Sorp Mass Change ([2]; Target RH 75.0%): 6.32%; Sorp Mass Change ([2]; Target RH 85.0%): 14.48%; Sorp Mass Change ([2]; Target RH 95.0%): 38.97%; temperature until which weight does not decrease (may be the onset of decomposition) [3]: approximately 165 °C; form change by XRPD ([4]; post-DVS sample, exposure to increased relative humidity): did not undergo a form change; Observations [7]: No excess solids
